Measurements from patent US6060475A, “Substituted pyrazin-2-yl-sulphonamide-(3-pyridyl) compounds and uses thereof” (Zeneca Limited, priority 1995, dated 2000).

Tests used:
[1] = tested on: pressor response induced by intravenously-administered proendothelin-1; assay: Test D: antagonism of pressor response to intravenous proendothelin-1 in conscious rat after oral dosing; format: in vivo; conditions: rats, dosed orally at 3 mg/kg, determined one hour after administration, n=5, 30 mmHg change level
Text: Test D: This in vivo test involves the measurement of the antagonist effect of the test compound against the pressor response induced by intravenously-administered proendothelin-1 in a conscious rat preparation.
Male rats (260-290 g) are anaesthetised with Saffan administered via the tail vein. The right jugular vein and carotid artery are isolated and catheters filled with heparin implanted. These are exteriorised at the back of the neck using a metal trochar and the neck incision closed with autoclips. Rats are housed individually with free access to food and water during the recovery phase. Later in the day, food is removed and the rats are fasted overnight with free access to water. The following day the rats are placed in perspex restraining tubes and the arterial catheter drained and connected to a pressure transducer for measurement of mean arterial pressure. Following a ten minute stabilization period, proendothelin-1 (usually 0.3-1.0 nmol kg^-1) is administered cumulatively until a pressor response of 30 mmHg is achieved. The animals are then returned to their cages and allowed to recover for 2 hours. The test compound is administered orally (by gavage) at a known time point during the recovery period. […] Endothelin receptor antagonism is quantified by calculating dose ratio shifts at the 30 mmHg change level.

[2] = tested on: Human ETA or ETB receptors; assay: Test A: inhibition of [125I]-Endothelin-1 binding to MEL cell membranes expressing recombinant receptor; conditions: receptor sub-type (ETA or ETB) not given
Text: Test A: The endothelin receptor antagonist activity of compounds of formula I may be assessed in vitro by their ability to inhibit binding of [^125 I]-Endothelin-1 to its receptors. Human ETA or ETB receptors (sub-types of the endothelin receptor) were expressed in Mouse Erythroleukemic Cells (MEL cells) by using standard molecular techniques (for example, as described by Sambrook J., Fritsch E. F. & Maniatis T. (1989) Molecular Cloning: A Laboratory Manual, 2nd Edition, Cold Spring Harbor Press, USA). cDNA sequences encoding the human ETA and ETB receptor (Hosoda K. et al (1991), FEBS Lett., 287, 23-26 and Sakamoto A. et al, (1991), Biochem. Biophys Res. Comm., 178, 656-663) are subcloned into pBluescript vector followed by insertion into the MEL cell expression vector pEV as described by Needham et al (1992), Nuc. Acids Res., 20, 997-1003. […]
[^125 I]-Endothelin-1 binding to MEL cell membranes was measured in incubation buffer containing 50 mM Tris HCl 1 mM CaCl2, 0.05% polyoxyethylenesorbitan monolaurate, 0.1% Bovine Serum Albumin (BSA), 0.02% sodium azide pH 7.4 at 30° C. after 180 minutes incubation. […] Nonspecific binding was measured in the presence of 100 nM unlabelled Endothelin-1. […] The filter discs were punched out and counted in a gamma counter. Compounds are tested in triplicate over a range of concentrations and IC50 (or pIC50) values calculated.

## COc1nc(C)cnc1NS(=O)(=O)c1cccnc1-c1ccc(OC(C)C)cc1 [Example 3, 2-(4-isopropoxyphenyl)-N-(3-methoxy-5-methylpyrazin-2-yl)pyridine-3-sulphonamide]
[1]
  mean dose ratio shift on the pressor response to proendothelin-1: 2.93
[2]
  pIC50 in Test A: 8.6
